Assay results taken from ChEMBL document CHEMBL1145898, “Molecular docking studies of natural cholinesterase-inhibiting steroidal alkaloids from Sarcococca saligna” (J Med Chem, 2003).

What was measured:
Acetylcholinesterase [1] = molecular target: T1, Acetylcholinesterase (Torpedo californica, UniProt P04058); experiment: In vitro binding affinity was determined against acetylcholinesterase from torpedo californica; set-up: species or system Tetronarce californica
Acetylcholinesterase [2] = molecular target: T1, Acetylcholinesterase; experiment: In vitro anticholinesterase activity was determined against acetylcholinesterase from Torpedo californica; set-up: species or system Tetronarce californica

T1 sequence (P04058 whole entry): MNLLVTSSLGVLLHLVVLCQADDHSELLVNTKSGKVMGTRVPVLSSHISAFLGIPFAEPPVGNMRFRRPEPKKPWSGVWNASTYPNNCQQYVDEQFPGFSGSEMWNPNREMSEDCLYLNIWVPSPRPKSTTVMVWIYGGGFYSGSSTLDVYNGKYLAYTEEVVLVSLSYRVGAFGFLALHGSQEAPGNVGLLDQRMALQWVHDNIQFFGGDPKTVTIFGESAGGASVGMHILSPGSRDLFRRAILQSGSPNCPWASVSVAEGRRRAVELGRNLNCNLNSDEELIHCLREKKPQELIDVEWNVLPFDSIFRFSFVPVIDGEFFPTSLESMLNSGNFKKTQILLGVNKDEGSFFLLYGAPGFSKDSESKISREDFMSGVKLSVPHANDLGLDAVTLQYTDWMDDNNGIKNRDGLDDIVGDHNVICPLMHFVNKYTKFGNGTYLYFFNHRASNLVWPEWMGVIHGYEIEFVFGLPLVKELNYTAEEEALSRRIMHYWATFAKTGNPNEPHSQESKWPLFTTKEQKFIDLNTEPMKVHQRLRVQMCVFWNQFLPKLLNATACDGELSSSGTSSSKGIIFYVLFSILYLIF

SMILES | Ki (Acetylcholinesterase [1]) | IC50 (Acetylcholinesterase [2])
C/C=C(\C)C(=O)N[C@H]1CC[C@@]2(C)C(=CC[C@H]3C4=CC[C@H]([C@H](C)N(C)C)[C@@]4(C)CC[C@@H]32)C1=O | 2.65 µM | 
C/C=C(\C)C(=O)N[C@@H]1C=C2CC[C@@H]3[C@H](CC[C@]4(C)C([C@H](C)N(C)C)=CC[C@@H]34)[C@@]2(C)C[C@H]1O |  | 185 µM
CC(=O)O[C@H]1[C@@H](NC(=O)C=C(C)C)CC[C@]2(C)[C@H]3CC[C@]4(C)[C@@H]([C@H](C)N(C)C)CC[C@H]4[C@@H]3CC[C@@H]12 | 17.6 µM | 8.5 µM
CN[C@H]1CC[C@@]2(C)[C@@H](CC[C@@H]3[C@@H]2CC[C@]2(C)[C@@H]([C@H](C)N(C)C(C)=O)CC[C@@H]32)C1 | 216 µM | 204 µM
C[C@@H]([C@H]1CC[C@H]2[C@@H]3CC[C@H]4C(=O)C(NC(=O)c5ccccc5)=CC[C@]4(C)[C@H]3CC[C@]12C)N(C)C | 3.03 µM | 5.2 µM
C/C=C(\C)C(=O)N[C@@H]1[C@H](OC(C)=O)[C@@H]2CC[C@H]3C4=CC[C@H]([C@H](C)N(C)C)[C@@]4(C)CC[C@@H]3[C@@]2(C)C[C@@H]1O | 134 µM | 61.3 µM
C[C@@H]([C@H]1CC[C@H]2[C@@H]3CC[C@H]4C[C@@H](NC(=O)c5ccccc5)[C@@H](O)C[C@]4(C)[C@H]3CC[C@]12C)N(C)C |  | 78.2 µM
C/C=C(\C)C(=O)N[C@H]1CC[C@@]2(C)C(=CC[C@H]3[C@@H]4CC[C@H]([C@H](C)N(C)C)[C@@]4(C)CC[C@@H]32)C1=O | 5.4 µM | 7.1 µM
C/C(=C\C(=O)N(C)[C@H]1CC[C@@]2(C)[C@@H](CC[C@@H]3[C@@H]2CC[C@]2(C)[C@@H]([C@H](C)N(C)C)CC[C@@H]32)C1)C(C)C | 4.1 µM | 
C/C(=C\C(=O)N[C@H]1CC[C@@]2(C)[C@@H](CC[C@@H]3[C@@H]2CC[C@]2(C)[C@@H]([C@H](C)N(C)C)CC[C@@H]32)C1)C(C)C | 9.05 µM | 50.6 µM
CC(=O)O[C@H]1[C@@H](NC(=O)c2ccccc2)[C@@H](O)C[C@]2(C)[C@H]3CC[C@]4(C)[C@@H]([C@H](C)N(C)C)CC[C@H]4[C@@H]3CC[C@@H]12 | 126 µM | 228 µM
C/C=C(\C)C(=O)N[C@@H]1[C@H](OC(C)=O)[C@@H]2CC[C@@H]3[C@H](CC[C@]4(C)[C@@H]([C@H](C)N(C)C)CC[C@@H]34)[C@@]2(C)C[C@@H]1O |  | 182 µM
CC(=O)N[C@H]1CC[C@@]2(C)[C@@H](CC[C@@H]3[C@@H]2CC[C@]2(C)[C@@H]([C@H](C)N(C)C)CC[C@@H]32)C1 | 90.3 µM | 69.9 µM
C/C(=C\C(=O)N(C)[C@H]1CC[C@@]2(C)[C@@H](CC[C@@H]3[C@@H]2CC[C@]2(C)C([C@H](C)N(C)C)=CC[C@@H]32)C1)C(C)C | 10.7 µM | 6.2 µM
C[C@@H]([C@H]1CC[C@H]2[C@@H]3CC[C@H]4C[C@@H](N(C)C(=O)/C=C/c5ccccc5)CC[C@]4(C)[C@H]3CC[C@]12C)N(C)C [SALIGCINNAMIDE] | 12.2 µM | 19.9 µM
